# In patent publication US11357852B2, “Diglycosylated benzophenoxazine photosensitizer and preparation method and use thereof” (The Third Xiangya Hospital of Central South University, priority 2017, dated 2022):
# Assays:
# Assay type in all cases: cell-based
# [1] = tested on: β-Catenin; assay: Western Blot of β-Catenin expression in A-431 cells; settings: Western Blot (FIG. 6)
# Excerpt: (§1) The Wnt signaling pathway mainly refers to a classic Wnt signaling pathway mediated by β-Catenin. In the absence of the Wnt signaling, GSK3β can add a phosphate group to the serine/threonine residue at the N-terminus of β-Catenin. The phosphorylated β-Catenin is covalently modified by β-TRCP ubiquitination and then degraded by a proteasome. […] Therefore, by measuring the phosphorylation statuses of GSK3β, β-Catenin and PP2A, we can directly understand whether the Wnt signaling is activated. C-myc and Cyclin D1 as protooncogenes can promote division and translation of the cells of cutaneous squamous cell carcinoma, and ultimately promote cell proliferation. By observing C-myc and Cyclin D1, we can clearly understand the inhibition effect of the photosensitizer of the present invention on proliferation of the A-431 cells. […]
# (§2) A-431 cells at the logarithmic growth phase were digested with trypsin, and inoculated into a six-well culture plate, and cultured in a 5% CO2 incubator at 37° C. […] Respectively after 0.5 h and 16 h, the cells were collected to extract total protein, and the p-GSK3β, p-PP2A, p-β-catenin, C-myc, Cyclin D1 and β-Catenin in the cells were detected by the Western Blot method.
# [2] = tested on: p-GSK3β; assay: Western Blot of GSK3β phosphorylation in A-431 cells; settings: 200 to 800 nM, 20 J/cm^2 red light 15 min, Western Blot (FIG. 5)
# Excerpt: as §1, §2
# [3] = tested on: Cyclin D1; assay: Western Blot of Cyclin D1 expression in A-431 cells; settings: Western Blot (FIG. 6)
# Excerpt: as §1, §2
# [4] = tested on: C-myc; assay: Western Blot of C-myc expression in A-431 cells; settings: Western Blot (FIG. 6)
# Excerpt: as §1, §2
# [5] = tested on: p-PP2A; assay: Western Blot of PP2A phosphorylation in A-431 cells; settings: 200 to 800 nM, 20 J/cm^2 red light 15 min, Western Blot (FIG. 5)
# Excerpt: as §1, §2
# [6] = tested on: A-431 cells; assay: MTT method, proliferation of A-431 cells after photosensitizer and red light irradiation
# Description: The MTT method is a method for detecting cell survival and growth. The detection principle of it is that a succinate dehydrogenase in mitochondria of living cells can reduce exogenous MTTs to water-insoluble blue-violet crystalline formazan and deposit the formazan in the cells, while dead cells have no such function. Dimethyl sulfoxide (DMSO) can dissolve the formazan in the cells, and the light absorbance value of it is measured at 490 nm wavelength with an enzyme-linked immunometric meter, which can indirectly reflect the number of living cells.
# The cell line A-431 of cutaneous squamous cell carcinoma was cultured in a DMEM medium that contained 10% calf serum, added with […] of penicillin and 100 mg/L of streptomycin, and placed in a constant-temperature incubator at 37° C. and containing 5% CO2 for conventional culture. After the cells grew to confluence on the bottom of the flask, the medium was discarded, the cells were rinsed twice with a PBS solution, and then digested with 0.25% trypsin and 0.02% EDTA for 5 minutes, and then subcultured into flasks once every 2 to 3 days. The cells at the logarithmic growth phase were taken for experiment.
# A-431 cells at the logarithmic growth phase were digested with trypsin, and inoculated into a six-well culture plate, and cultured in a 5% CO2 incubator at 37° C. When grew to the confluence of 80%-90%, the cells were respectively added with distilled water and 100 nM, 200 nM, 400 nM, 600 nM and 800 nM of the diglycosylated benzophenoxazine photosensitizer referred in the present invention. After incubation for 1 h, the cells were irradiated with 20 J/cm^2 of red light for 15 min. 16 h later, the survival and growth status of the cells were detected by the MTT method.
# [7] = tested on: p-β-catenin; assay: Western Blot of β-catenin phosphorylation in A-431 cells; settings: 100 nM and 400 to 800 nM, 20 J/cm^2 red light 15 min, Western Blot (FIG. 5)
# Excerpt: as §1, §2
structure (smiles),measurement,setting,value
CCN(CC)CCC(C)(C[Se]N(CC)c1ccc2nc3c4ccccc4/c(=N\[Se]CC(C)(CN(CC)CC)ONC4C(O)C(O)C(CO)O[C@@H]4O)cc-3[se]c2c1)ONC1C(O)C(O)C(CO)O[C@@H]1O (stereo partly drawn),expression quantity of β-Catenin,[1]; 100 to 400 nM,increased slightly
same,expression quantity of β-Catenin,[1]; 600 and 800 nM,significantly decreased
same,phosphorylation of GSK3β,[2],significantly inhibit
same,expression quantity of Cyclin D1,[3]; 100 to 400 nM,increased slightly
same,expression quantity of Cyclin D1,[3]; 600 and 800 nM,significantly decreased
same,expression quantity of C-myc,[4]; 100 to 400 nM,increased slightly
same,expression quantity of C-myc,[4]; 600 and 800 nM,significantly decreased
same,phosphorylation of PP2A,[5],significantly inhibit
same,proliferation of A-431 cells,"[6]; 600 nM and 800 nM, concluded from Western Blot results (FIG. 6)",significantly inhibit
same,proliferation of the A-431 cells,"[6]; 100-800 nM, inhibition increases with dose, 20 J/cm^2 red light 15 min, MTT 16 h later",significantly inhibit
same,inhibition at 0.8 µM,"[6]; Homo sapiens, light or radiation study, 800 nM, A-431 cells, incubation 1 h, 20 J/cm^2 red light 15 min, MTT 16 h later, read-out: proliferation inhibition effect",80%
same,phosphorylation of β-catenin,[7],significantly promote
